Test results: the NIST ThermoML archive (doi:10.1021/je400529k)

Experiments:
[1] = refractive index (Na D-line) (dimensionless); xn = mol fraction of the nth substance listed; conditions: 101 kPa, Liquid, Standard Abbe refractometry
[2] = xn = mol fraction of the nth substance listed; conditions: 101 kPa, Liquid; for viscosity: Capillary tube (Ostwald / Ubbelohde) method; for mass density: Vibrating tube method

C1C[C@@H]2[C@H]3CC[C@H](C3)[C@@H]2C1 [exo-tetrahydrodicyclopentadiene] + CCCCC1CCCCC1
Conditions	mass density, [2] [kg/m3]	refractive index, [1]	viscosity, [2] [mPa·s]
293.15 K, x1 = 0.1	811.06	1.444	1.391
293.15 K, x1 = 0.1993	822.96	1.4478	1.49
293.15 K, x1 = 0.2997	835.42	1.4521	1.602
293.15 K, x1 = 0.3991	848.2	1.4568	1.732
293.15 K, x1 = 0.5002	861.66	1.4613	1.879
293.15 K, x1 = 0.6005	875.49	1.466	2.044
293.15 K, x1 = 0.7	889.72	1.4712	2.234
293.15 K, x1 = 0.8004	904.57	1.4766	2.446
293.15 K, x1 = 0.8999	919.8	1.4818	2.688
293.15 K, x1 = 1	935.72	1.4874	2.992
298.15 K, x1 = 0.1	807.31	–	1.279
298.15 K, x1 = 0.1993	819.19	–	1.367
298.15 K, x1 = 0.2997	831.63	–	1.467
298.15 K, x1 = 0.3991	844.39	–	1.584
298.15 K, x1 = 0.5002	857.83	–	1.715
298.15 K, x1 = 0.6005	871.64	–	1.863
298.15 K, x1 = 0.7	885.86	–	2.032
298.15 K, x1 = 0.8004	900.7	–	2.224
298.15 K, x1 = 0.8999	915.95	–	2.438
298.15 K, x1 = 1	931.84	–	2.71
303.15 K, x1 = 0.1	803.53	1.4393	1.181
303.15 K, x1 = 0.1993	815.39	1.4435	1.261
303.15 K, x1 = 0.2997	827.82	1.448	1.351
303.15 K, x1 = 0.3991	840.57	1.4522	1.456
303.15 K, x1 = 0.5002	853.98	1.457	1.574
303.15 K, x1 = 0.6005	867.78	1.4619	1.707
303.15 K, x1 = 0.7	881.99	1.4669	1.858
303.15 K, x1 = 0.8004	896.81	1.4718	2.031
303.15 K, x1 = 0.8999	912.05	1.4774	2.223
303.15 K, x1 = 1	927.94	1.4831	2.467
308.15 K, x1 = 0.1	799.75	–	1.096
308.15 K, x1 = 0.1993	811.6	–	1.168
308.15 K, x1 = 0.2997	824.01	–	1.249
308.15 K, x1 = 0.3991	836.73	–	1.344
308.15 K, x1 = 0.5002	850.13	–	1.451
308.15 K, x1 = 0.6005	863.92	–	1.571
308.15 K, x1 = 0.7	878.11	–	1.707
308.15 K, x1 = 0.8004	892.92	–	1.862
308.15 K, x1 = 0.8999	908.14	–	2.036
308.15 K, x1 = 1	924.02	–	2.255
313.15 K, x1 = 0.1	795.96	1.435	1.02
313.15 K, x1 = 0.1993	807.79	1.4391	1.085
313.15 K, x1 = 0.2997	820.18	1.4435	1.159
313.15 K, x1 = 0.3991	832.89	1.448	1.245
313.15 K, x1 = 0.5002	846.27	1.4524	1.342
313.15 K, x1 = 0.6005	860.05	1.4575	1.451
313.15 K, x1 = 0.7	874.22	1.4626	1.573
313.15 K, x1 = 0.8004	889.02	1.4677	1.715
313.15 K, x1 = 0.8999	904.23	1.4728	1.872
313.15 K, x1 = 1	920.11	1.4786	2.069
318.15 K, x1 = 0.1	792.17	–	0.952
318.15 K, x1 = 0.1993	803.98	–	1.012
318.15 K, x1 = 0.2997	816.35	–	1.079
318.15 K, x1 = 0.3991	829.04	–	1.157
318.15 K, x1 = 0.5002	842.41	–	1.246
318.15 K, x1 = 0.6005	856.16	–	1.345
318.15 K, x1 = 0.7	870.32	–	1.456
318.15 K, x1 = 0.8004	885.11	–	1.585
318.15 K, x1 = 0.8999	900.32	–	1.727
318.15 K, x1 = 1	916.18	–	1.907
